According to US7517874B2 (priority 2007, dated 2009):
Read-outs that look alike come from different tables or passages of the source.

Experiments:
rat CB2 receptor (rCB2) = target: T1, rat CB2 receptor (rCB2) (Rattus norvegicus, UniProt Q9QZN9); test: cell-based; format: cell-based; settings: for +/− RCB2: agonist or inverse agonist at rCB2
T1 sequence (Q9QZN9 1-360): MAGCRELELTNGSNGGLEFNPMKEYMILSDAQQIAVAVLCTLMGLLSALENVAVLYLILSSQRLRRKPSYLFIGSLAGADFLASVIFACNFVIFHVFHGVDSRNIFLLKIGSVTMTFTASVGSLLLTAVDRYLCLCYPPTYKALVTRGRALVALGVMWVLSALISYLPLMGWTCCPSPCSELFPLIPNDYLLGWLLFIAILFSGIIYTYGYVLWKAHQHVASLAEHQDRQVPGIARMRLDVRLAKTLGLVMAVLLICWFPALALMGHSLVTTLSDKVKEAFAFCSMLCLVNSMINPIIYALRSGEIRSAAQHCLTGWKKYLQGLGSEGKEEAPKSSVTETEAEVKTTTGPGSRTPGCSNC
Method in brief: (§1)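 Readout: LANCE TR-FRET cAMP, back-calculated from a concurrent standard curve and scaled between forskolin-only and forskolin + 1 μM CP55,940 wells. EC50 and intrinsic activity came from four-parameter fits.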

[1] = target: human CB1 receptor (hCB1) (Homo sapiens, UniProt P21554); test: cell-based; format: cell-based; settings: for +/− HCB1: agonist or inverse agonist at hCB1
Method in brief: as §1

[2] = groups >100 nM-10 μM and >10 μM, cAMP, CHO-K1 hCB1, read-out: EC50 HCB1

Chain of human CB1 receptor (hCB1) (P21554 whole entry): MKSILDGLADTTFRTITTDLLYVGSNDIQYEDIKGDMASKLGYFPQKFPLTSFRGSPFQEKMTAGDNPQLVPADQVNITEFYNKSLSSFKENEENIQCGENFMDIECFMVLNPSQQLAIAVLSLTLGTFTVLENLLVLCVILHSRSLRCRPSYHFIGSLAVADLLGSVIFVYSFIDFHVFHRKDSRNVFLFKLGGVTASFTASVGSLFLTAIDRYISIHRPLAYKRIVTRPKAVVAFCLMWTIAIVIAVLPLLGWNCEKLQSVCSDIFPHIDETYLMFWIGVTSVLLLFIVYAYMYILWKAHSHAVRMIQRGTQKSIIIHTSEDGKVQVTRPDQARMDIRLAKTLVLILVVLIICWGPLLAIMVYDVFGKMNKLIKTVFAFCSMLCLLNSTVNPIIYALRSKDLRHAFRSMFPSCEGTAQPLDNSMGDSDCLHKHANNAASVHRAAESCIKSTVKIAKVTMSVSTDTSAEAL

**Q.** How did the “+/− RCB2” value (rat CB2 receptor (rCB2)) turn out when `CNC(=O)[C@H](CC(C)C)NC(=O)c1nc(-c2ccc(Cl)cc2F)n2c1CN(C)CCC2` [Compound 529, (S)-3-(4-chloro-2-fluorophenyl)-8-methyl-N-(4-methyl-1-(methylamino)-1-oxopentan-2-yl)-6,7,8,9-tetrahydro-5H-imidazo[1,5-a][1,4]diazepine-1-carboxamide] was run?
**A.** +

**Q.** What about the EC50 [1] of the same compound?
**A.** > 10000 nM

**Q.** Which “+/− RCB2” value (rat CB2 receptor (rCB2)) does the source give for `CNC(=O)[C@@H](NC(=O)c1nc(-c2ccccc2F)n2c1CN(C)CCC2)C(C)(C)C` [Compound 353, (S)-N-(3,3-dimethyl-1-(methylamino)-1-oxobutan-2-yl)-3-(2-fluorophenyl)-8-methyl-6,7,8,9-tetrahydro-5H-imidazo[1,5-a][1,4]diazepine-1-carboxamide] here?
**A.** +

**Q.** What about the EC50 [1] of the same compound?
**A.** > 10000 nM

**Q.** For `CCN1CCn2c(-c3ccccc3)nc(C(=O)N[C@H](C(=O)NC)C(C)(C)C)c2C1` [Compound 149, (S)-N-(3,3-dimethyl-1-(methyalmino)-1-oxobutan-2-yl)-7-ethyl-3-phenyl-5,6,7,8-tetrahydroimidazo[1,5-a]pyrazine-1-carboxamide], which “+/− RCB2” value (rat CB2 receptor (rCB2)) is on record?
**A.** −

**Q.** And the EC50 [1]?
**A.** > 10000 nM

**Q.** `CNC(=O)[C@@H](NC(=O)c1nc(-c2ccccc2)n2c1CN(C(C)C)CCC2)C(C)(C)C` [Compound 319, (S)-N-(3,3-dimethyl-1-(methylamino)-1-oxobutan-2-yl)-8-isopropyl-3-phenyl-6,7,8,9-tetrahydro-5H-imidazo[1,5-a][1,4]diazepine-1-carboxamide] was tested. Which EC50 (rat CB2 receptor (rCB2)) did it give?
**A.** > 10 µM

**Q.** And the EC50 [1]?
**A.** > 10000 nM

**Q.** What does the source list for `CCN(CC)C/C=C/c1nc(C(=O)N[C@H](C(=O)NC)C(C)(C)C)c2n1CCCN(C)C2` [Compound 512, (S,E)-3-(3-(diethylamino)prop-1-enyl)-N-(3,3-dimethyl-1-(methylamino)-1-oxobutan-2-yl)-8-methyl-6,7,8,9-tetrahydro-5H-imidazo[1,5-a][1,4]diazepine-1-carboxamide]?
**A.** EC50 (rat CB2 receptor (rCB2)): > 10 µM; EC50 [1]: > 10000 nM

**Q.** For `CNC(=O)[C@@H](NC(=O)c1nc(-c2csc3ccccc23)n2c1CN(C)CCC2)C(C)(C)C` [Compound 354, (S)-3-(benzo[b]thiophen-3-yl)-N-(3,3-dimethyl-1-(methylamino)-1-oxobutan-2-yl)-8-methyl-6,7,8,9-tetrahydro-5H-imidazo[1,5-a][1,4]diazepine-1-carboxamide], which “+/− RCB2” value (rat CB2 receptor (rCB2)) is on record?
**A.** −

**Q.** And the EC50 [1]?
**A.** > 10000 nM

**Q.** What does the source list for `CN1CCCn2c(-c3ccc(F)c(Cl)c3)nc(C(=O)N[C@@H](CC(C)(C)C)C(N)=O)c2C1` [Compound 587, (S)-N-(1-amino-4,4-dimethyl-1-oxopentan-2-yl)-3-(3-chloro-4-fluorophenyl)-8-methyl-6,7,8,9-tetrahydro-5H-imidazo[1,5-a][1,4]diazepine-1-carboxamide]?
**A.** +/− RCB2 (rat CB2 receptor (rCB2)): +; +/− HCB1 [1]: +

**Q.** Which EC50 (rat CB2 receptor (rCB2)) does the source give for `CNC(=O)[C@@H](NC(=O)c1nc(CCCCO)n2c1CN(C)CCC2)C(C)(C)C` [Compound 508, (S)-N-(3,3-dimethyl-1-(methylamino)-1-oxobutan-2-yl)-3-(4-hydroxybutyl)-8-methyl-6,7,8,9-tetrahydro-5H-imidazo[1,5-a][1,4]diazepine-1-carboxamide] here?
**A.** > 10 µM

**Q.** And the “+/− HCB1” value [1]?
**A.** +

**Q.** What does the source list for `CNC(=O)[C@@H](NC(=O)c1nc(-c2ccccc2)n2c1CN(C(=O)Nc1ccccc1)CC2)C(C)(C)C` [Compound 194, (S)-N1-(3,3-dimethyl-1-(methylamino)-1-oxobutan-2-yl)-N7,3-diphenyl-5,6-dihydroimidazo[1,5-a]pyrazine1,7-(8H)-dicarboxamide]?
**A.** EC50 (rat CB2 receptor (rCB2)): > 10 µM; EC50 [1]: > 10000 nM

**Q.** Which results are given for `CNC(=O)[C@H](CC(C)C)NC(=O)c1nc(-c2cc(F)ccc2F)n2c1CN(C)CCC2` [Compound 532, (S)-3-(2,5-difluorophenyl)-8-methyl-N-(4-methyl-1-(methylamino)-1-oxopentan-2-yl)-6,7,8,9-tetrahydro-5H-imidazo[1,5-a][1,4]diazepine-1-carboxamide]?
**A.** +/− RCB2 (rat CB2 receptor (rCB2)): −; EC50 [1]: > 10000 nM

**Q.** `O=C(NC1CCCCC1)c1nc(-c2ccccc2)n2c1CN(CC1CCOC1)CC2` (stereo not shown) [Compound 141, N-cyclohexyl-3-phenyl-7-((tetrahydrofuran-3-yl)methyl)-5,6,7,8-tetrahydroimidazo[1,5-a]pyrazine-1-carboxamide] was tested. Which “+/− RCB2” value (rat CB2 receptor (rCB2)) did it give?
**A.** −

**Q.** And the EC50 [1]?
**A.** > 10000 nM

**Q.** What does the source list for `CN1CCCn2c(-c3ccc(F)c(F)c3)nc(C(=O)N[C@H](C(N)=O)C(C)(C)C)c2C1` [Compound 581, (S)-N-(1-amino-3,3-dimethyl-1-oxobutan-2-yl)-3-(3,4-difluorophenyl)-8-methyl-6,7,8,9-tetrahydro-5H-imidazo[1,5-a][1,4]diazepine-1-carboxamide]?
**A.** +/− RCB2 (rat CB2 receptor (rCB2)): +; +/− HCB1 [1]: +

**Q.** Which results are given for `CNC(=O)[C@@H](NC(=O)c1nc(-c2ccc(C)o2)n2c1CN(C)CCC2)C(C)(C)C` [Compound 443, (S)-N-(3,3-dimethyl-1-(methylamino)-1-oxobutan-2-yl)-8-methyl-3-(5-methylfuran-2-yl)-6,7,8,9-tetrahydro-5H-imidazo[1,5-a][1,4]diazepine-1-carboxamide]?
**A.** +/− RCB2 (rat CB2 receptor (rCB2)): −; EC50 [1]: > 10000 nM

**Q.** For `CNC(=O)[C@@H](NC(=O)c1nc(-c2cncnc2)n2c1CNCC2)C(C)(C)C` [Compound 19, (S)-N-(3,3-dimethyl-1-(methylamino)-1-oxobutan-2-yl)-3-(pyrimidin-5-yl)-5,6,7,8-tetrahydroimidazo[1,5-a]pyrazine-1-carboxamide], which EC50 (rat CB2 receptor (rCB2)) is on record?
**A.** > 10 µM

**Q.** And the EC50 [1]?
**A.** > 10000 nM

**Q.** For `CC(C)(C)c1noc([C@@H](NC(=O)c2nc(-c3ccccc3)n3c2CN(C2CC2)CC3)C(C)(C)C)n1` [Compound 284, (S)-N-(1-(3-tert-butyl-1,2,4-oxadiazol-5-yl)-2,2-dimethylpropyl)-7-cyclopropyl-3-phenyl-5,6,7,8-tetrahydroimidazo[1,5-a]pyrazine-1-carboxamide], which “+/− RCB2” value (rat CB2 receptor (rCB2)) is on record?
**A.** −

**Q.** What about the EC50 [1] of the same compound?
**A.** > 10000 nM

**Q.** `C[C@@H](NC(=O)c1nc(-c2ccccc2)n2c1CN(C(=O)C(C)(C)C)CC2)C1CCCCC1` [Compound 133, (R)-N-(1-cyclohexylethyl)-3-phenyl-7-pivaloyl-5,6,7,8-tetrahydroimidazo[1,5-a]pyrazine-1-carboxamide] was tested. Which “+/− RCB2” value (rat CB2 receptor (rCB2)) did it give?
**A.** −

**Q.** What about the EC50 [1] of the same compound?
**A.** > 10000 nM

**Q.** For `CC(C)(C)OC(=O)N1CCn2c(-c3ccc(Cl)cc3)nc(C(=O)N[C@H](CO)C(C)(C)C)c2C1` [Compound 34, (S)-tert-butyl 3-(4-chlorophenyl)-1-(1-hydroxy-3,3-dimethylbutan-2-ylcarbamoyl)-5,6-dihydroimidazo[1,5-a]pyrazine-7(8H)-carboxylate], which “+/− RCB2” value (rat CB2 receptor (rCB2)) is on record?
**A.** −

**Q.** And the EC50 [1]?
**A.** > 10000 nM

**Q.** With `CNC(=O)[C@@H](NC(=O)c1nc(C(O)C2CC2)n2c1CN(C)CC2)C(C)(C)C` (stereo partly drawn) [Compound 296, 3-(cyclopropyl(hydroxy)methyl)-N-((S)-3,3-dimethyl-1-(methylamino)-1-oxobutan-2-yl)-7-methyl-5,6,7,8-tetrahydroimidazo[1,5-a]pyrazine-1-carboxamide] as the compound, how does the “+/− RCB2” value (rat CB2 receptor (rCB2)) read?
**A.** +

**Q.** What about the EC50 [1] of the same compound?
**A.** > 10000 nM

**Q.** `CN1CCn2c(-c3ccc(Cl)cc3F)nc(C(=O)Nc3ccc(S(=O)(=O)N4CCOCC4)cc3)c2C1` [Compound 219] was tested. Which “+/− RCB2” value (rat CB2 receptor (rCB2)) did it give?
**A.** −

**Q.** What about the EC50 [1, 2] of the same compound?
**A.** > 10000 nM

**Q.** `C[C@@H](NC(=O)c1nc(-c2ccccc2)n2c1CN(C(=O)C1CC1)CC2)C1CCCCC1` [Compound 132, (R)-N-(1-cyclohexylethyl)-7-(cyclopropanecarbonyl)-3-phenyl-5,6,7,8-tetrahydroimidazo[1,5-a]pyrazine-1-carboxamide] was tested. Which “+/− RCB2” value (rat CB2 receptor (rCB2)) did it give?
**A.** −

**Q.** And the EC50 [1]?
**A.** > 10000 nM

**Q.** `CC(C)CCNC(=O)c1nc(-c2ccc(Cl)cc2)n2c1CN(CCO)CC2` [Compound 159, 3-(4-chlorophenyl)-7-(2-hydroxyethyl)-N-isopentyl-5,6,7,8-tetrahydroimidazo[1,5-a]pyrazine-1-carboxamide] was tested. Which “+/− RCB2” value (rat CB2 receptor (rCB2)) did it give?
**A.** −

**Q.** And the EC50 [1, 2]?
**A.** > 10000 nM

**Q.** How did the “+/− RCB2” value (rat CB2 receptor (rCB2)) turn out when `CNC(=O)[C@@H](NC(=O)c1nc(-c2ccccc2)n2c1CN(CC(C)C)CC2)C(C)(C)C` [Compound 148, (S)-N-(3,3-dimethyl-1-(methylamino)-1-oxobutan-2-yl)-7-isobutyl-3-phenyl-5,6,7,8-tetrahydroimidazo[1,5-a]pyrazine-1-carboxamide] was run?
**A.** −

**Q.** And the EC50 [1]?
**A.** > 10000 nM

**Q.** How did the “+/− RCB2” value (rat CB2 receptor (rCB2)) turn out when `CNC(=O)[C@@H](NC(=O)c1nc(-c2cc(F)c(OC)cc2F)n2c1CN(C)CCC2)C(C)(C)C` [Compound 424, (S)-3-(2,5-difluoro-4-methoxyphenyl)-N-(3,3-dimethyl-1-(methylamino)-1-oxobutan-2-yl)-8-methyl-6,7,8,9-tetrahydro-5H-imidazo[1,5-a][1,4]diazepine-1-carboxamide] was run?
**A.** +

**Q.** And the EC50 [1]?
**A.** > 10000 nM

**Q.** Which results are given for `CNC(=O)[C@@H](NC(=O)c1nc(-c2ccc(C(F)(F)F)cc2)n2c1CNCC2)C(C)(C)C` [Compound 5, (S)-N-(3,3-dimethyl-1-(methylamino)-1-oxobutan-2-yl)-3-(4-(trifluoromethyl)phenyl)-5,6,7,8-tetrahydroimidazo[1,5-a]pyrazine-1-carboxamide]?
**A.** +/− RCB2 (rat CB2 receptor (rCB2)): −; EC50 [1]: > 10000 nM

**Q.** `CNC(=O)[C@@H](NC(=O)c1nc(/C=C/c2ccsc2)n2c1CN(C)CCC2)C(C)(C)C` [Compound 446] was tested. Which “+/− RCB2” value (rat CB2 receptor (rCB2)) did it give?
**A.** +

**Q.** And the EC50 [1]?
**A.** > 10000 nM

**Q.** How did the “+/− RCB2” value (rat CB2 receptor (rCB2)) turn out when `CNC(=O)[C@@H](NC(=O)c1nc(-c2ccccc2)n2c1CNCCC2)C(C)(C)C` [Compound 314, (S)-N-(3,3-dimethyl-1-(methylamino)-1-oxobutan-2-yl)-3-phenyl-6,7,8,9-tetrahydro-5H-imidazo[1,5-a][1,4]diazepine-1-carboxamide] was run?
**A.** −

**Q.** And the EC50 [1]?
**A.** > 10000 nM
